Experimental data reported in PMC10235067, “Increased renal elimination of endogenous and synthetic pyrimidine nucleosides in concentrative nucleoside transporter 1 deficient mice” (Nature Communications, 2023).
“And” between values parts separate entries of the source, which are not always exact repeats. Equal values may be shown once.

Experiment: Gemcitabine plasma pharmacokinetics in Slc28a1+/+ and Slc28a1-/- mice
Details: Gem-TP in plasma, single intravenous dose of gemcitabine 50mg/kg, individual mice
Description: To collect blood, a 5 mm lancet was used to apply pressure to the submandibular vein and release blood flow. For retro-orbital collection, mice were anesthetized with 3% isoflurane in oxygen, and the blood was collected directly into heparinized capillary tubes by applying slight pressure to the medial canthus of the eye. Cardiac puncture was performed as the final collection method by first euthanizing the mice in a CO2 chamber and immediately performing posterior cardiac puncture by inserting a 27 G needle with a 1 ml syringe attachment into the heart. Once blood collection was completed, gentle pressure was applied to the blood collection area using gauze to stop the bleeding. Thirty microliters of blood was collected into heparinized capillary tubes at each time point, transferred into prelabeled 0.5 ml microcentrifuge tubes containing THU (10 µg/ml; final concentration), and immediately processed and snap-frozen following procedures outlined in the “Gemcitabine plasma pharmacokinetics” methods section.
Gemcitabine and dFdU plasma concentrations were measured using a modified version of our previously published UHPLC–MS/MS method for nucleosides[74] […] Noncompartmental pharmacokinetic parameters (Cmax, Tmax, AUC, CL, T1/2, etc.) were calculated using WinNonlin 6.2 software (Pharsight; Mountain View, CA). […] The Cmax and Tmax were obtained from the concentration-time curve. The AUC was calculated according to the linear trapezoidal rule up to the last time point with a measurable concentration of the analyte of interest. Significant differences between Slc28a1^+/+ and Slc28a1^−/− mouse pharmacokinetic parameters (p < 0.05) were evaluated with an unpaired two-sided Student’s t-test.
The resulting supernatant was evaporated to dryness in a SpeedVac, and the remaining residue was reconstituted in mobile phase A for subsequent analysis. […] Subsequent processing was identical to that for the plasma and urine samples.
Briefly, the analysis was performed on an Imtakt Schzero SM C18 column, 2.1 × 100 mm, 3.0 µm particle size. The eluents used consisted of mobile phase A consisting of 50 mM ammonium formate:50 mM ammonium hydroxide (9:1, v/v) (pH = 8.6) and mobile phase B consisting of 50 mM ammonium formate:50 mM ammonium hydroxide (9:1, v/v):ACN (80:20, v/v) (pH = 8.6). […] The injection volume was 10 μL, and the autosampler temperature was set at 4 °C throughout the analysis.
The Waters Triple Quadrupole Mass Spectrometer with an ESI source was operated in negative and positive ion mode at a spray voltage of 2.5 kV, capillary temperature of 150 °C, and vaporizer temperature of 250 °C. Compound optimization was performed manually using the MassLynx 4.1 Software AutoTune Wizard (Waters, Milford, MA) by infusion into the mass spectrometer using a T-connector. […] Analyze concentrations were determined and analyzed using MassLynx Mass Spectrometry Software (Waters; Milford, MA).

## Nc1ccn([C@@H]2O[C@H](COP(=O)(O)OP(=O)(O)OP(=O)(O)O)[C@@H](O)C2(F)F)c(=O)n1 [Gem-TP]
KO (Slc28a1-/-) mice
  AUCINF_D_obs: 509.381 kg·ng·min/mL/mg and 272.158 kg·ng·min/mL/mg and 1500.18 kg·ng·min/mL/mg and 597.23 kg·ng·min/mL/mg and 1529.97 kg·ng·min/mL/mg and 1749.53 kg·ng·min/mL/mg
  AUCINF_D_pred: 476.443 kg·ng·min/mL/mg and 251.621 kg·ng·min/mL/mg and 1436.01 kg·ng·min/mL/mg and 561.179 kg·ng·min/mL/mg and 1459.25 kg·ng·min/mL/mg and 1679.11 kg·ng·min/mL/mg
  AUCINF_obs: 25469 ng·min/mL and 13607.9 ng·min/mL and 75008.8 ng·min/mL and 29861.5 ng·min/mL and 76498.5 ng·min/mL and 87476.7 ng·min/mL
  AUCINF_pred: 23822.1 ng·min/mL and 12581.1 ng·min/mL and 71800.6 ng·min/mL and 28058.9 ng·min/mL and 72962.4 ng·min/mL and 83955.6 ng·min/mL
  AUC_%Back_Ext_obs: 0.5829% and 5.828% and 0.4312% and 2.002% and 0.5682% and 0.06111%
  AUC_%Back_Ext_pred: 0.6232% and 6.304% and 0.4505% and 2.131% and 0.5957% and 0.06367%
  AUC_%Extrap_obs: 67.4874% and 53.7747% and 79.3116% and 67.9349% and 78.2847% and 81.1285%
  AUC_%Extrap_pred: 65.2397% and 50.0019% and 78.3872% and 65.875% and 77.2323% and 80.3371%
  AUCall: 8280.65 ng·min/mL and 6290.29 ng·min/mL and 15518.1 ng·min/mL and 9575.11 ng·min/mL and 16611.9 ng·min/mL and 16508.1 ng·min/mL
  AUClast: 8280.65 ng·min/mL and 6290.29 ng·min/mL and 15518.1 ng·min/mL and 9575.11 ng·min/mL and 16611.9 ng·min/mL and 16508.1 ng·min/mL
  AUClast_D: 165.613 kg·ng·min/mL/mg and 125.806 kg·ng·min/mL/mg and 310.363 kg·ng·min/mL/mg and 191.502 kg·ng·min/mL/mg and 332.237 kg·ng·min/mL/mg and 330.163 kg·ng·min/mL/mg
  AUMCINF_obs: 14271006 min*min*ng/mL and 5009676 min*min*ng/mL and 73111057 min*min*ng/mL and 17625971 min*min*ng/mL and 70582595 min*min*ng/mL and 93013834 min*min*ng/mL
  AUMCINF_pred: 12992303 min*min*ng/mL and 4388328 min*min*ng/mL and 69264936 min*min*ng/mL and 16149841 min*min*ng/mL and 66527378 min*min*ng/mL and 88496254 min*min*ng/mL
  AUMC_%Extrap_obs: 93.5147% and 88.3871% and 97.5522% and 94.251% and 97.3007% and 97.8918%
  AUMC_%Extrap_pred: 92.8764% and 86.7428% and 97.4162% and 93.7255% and 97.1361% and 97.7841%
  AUMClast: 925521 min*min*ng/mL and 581771 min*min*ng/mL and 1789646 min*min*ng/mL and 1013321 min*min*ng/mL and 1905271 min*min*ng/mL and 1960946 min*min*ng/mL
  Cl_pred: 2098.89 mL/min/kg and 3974.23 mL/min/kg and 696.373 mL/min/kg and 1781.96 mL/min/kg and 685.285 mL/min/kg and 595.553 mL/min/kg
  Clast: 32.0426 ng/mL and 20.0426 ng/mL and 62.0426 ng/mL and 35.0426 ng/mL and 66.0426 ng/mL and 68.0426 ng/mL
  Clast_pred: 28.9724 ng/mL and 17.2301 ng/mL and 58.6968 ng/mL and 31.9288 ng/mL and 62.1429 ng/mL and 64.6666 ng/mL
  Cmax: 49.2745 ng/mL and 91.6911 ng/mL and 79.2745 ng/mL and 88.6911 ng/mL and 85.6911 ng/mL and 85.2745 ng/mL
  Cmax_D: 0.9855 kg·ng/mL/mg and 1.834 kg·ng/mL/mg and 1.585 kg·ng/mL/mg and 1.774 kg·ng/mL/mg and 1.714 kg·ng/mL/mg and 1.705 kg·ng/mL/mg
  HL_Lambda_z: 371.821 min and 253.07 min and 664.637 min and 401.268 min and 628.538 min and 722.954 min
  Lambda_z: 0.001864 min⁻¹ and 0.002739 min⁻¹ and 0.001043 min⁻¹ and 0.001727 min⁻¹ and 0.001103 min⁻¹ and 0.0009588 min⁻¹
  MRTINF_obs: 9.33878 h and 6.13575 h and 16.24 h and 9.83763 h and 15.3778 h and 17.722 h
  MRTINF_pred: 9.0898 h and 5.81342 h and 16.0781 h and 9.59282 h and 15.1967 h and 17.568 h
  MRTlast: 1.86282 h and 1.54145 h and 1.9221 h and 1.76382 h and 1.91155 h and 1.97978 h
  Tlast: 240 min
  Tmax: 0.167 h and 0.083 h
  Vss_obs: 1100.017 L/kg and 1352.688 L/kg and 649.724 L/kg and 988.326 L/kg and 603.062 L/kg and 607.76 L/kg
  Vss_pred: 1144.708 L/kg and 1386.23 L/kg and 671.779 L/kg and 1025.643 L/kg and 624.846 L/kg and 627.762 L/kg
  Vz_obs: 1053.09 L/kg and 1341.512 L/kg and 639.17 L/kg and 969.32 L/kg and 592.684 L/kg and 596.16 L/kg
  Vz_pred: 1125.894 L/kg and 1451.004 L/kg and 667.729 L/kg and 1031.591 L/kg and 621.408 L/kg and 621.163 L/kg
WT (Slc28a1+/+) mice
  AUCINF_D_obs: 627.983 kg·ng·min/mL/mg and 293.244 kg·ng·min/mL/mg and 2095.28 kg·ng·min/mL/mg and 746.583 kg·ng·min/mL/mg and 2357.3 kg·ng·min/mL/mg and 2481.13 kg·ng·min/mL/mg
  AUCINF_D_pred: 611.177 kg·ng·min/mL/mg and 283.996 kg·ng·min/mL/mg and 2059.29 kg·ng·min/mL/mg and 727.87 kg·ng·min/mL/mg and 2318.74 kg·ng·min/mL/mg and 2441.28 kg·ng·min/mL/mg
  AUCINF_obs: 31399.2 ng·min/mL and 14662.2 ng·min/mL and 104764 ng·min/mL and 37329.2 ng·min/mL and 117865 ng·min/mL and 124056 ng·min/mL
  AUCINF_pred: 30558.9 ng·min/mL and 14199.8 ng·min/mL and 102964 ng·min/mL and 36393.5 ng·min/mL and 115937 ng·min/mL and 122064 ng·min/mL
  AUC_%Back_Ext_obs: 0.6002% and 4.658% and 0.3469% and 1.514% and 0.3975% and 0.07533%
  AUC_%Back_Ext_pred: 0.6167% and 4.81% and 0.353% and 1.5528% and 0.4041% and 0.07656%
  AUC_%Extrap_obs: 74.9814% and 61.0207% and 85.5932% and 75.6831% and 86.2719% and 87.0356%
  AUC_%Extrap_pred: 74.2934% and 59.7514% and 85.3414% and 75.0579% and 86.0436% and 86.824%
  AUCall: 7855.65 ng·min/mL and 5715.22 ng·min/mL and 15093.1 ng·min/mL and 9077.31 ng·min/mL and 16180.6 ng·min/mL and 16083.1 ng·min/mL
  AUClast: 7855.65 ng·min/mL and 5715.22 ng·min/mL and 15093.1 ng·min/mL and 9077.31 ng·min/mL and 16180.6 ng·min/mL and 16083.1 ng·min/mL
  AUClast_D: 157.113 kg·ng·min/mL/mg and 114.304 kg·ng·min/mL/mg and 301.863 kg·ng·min/mL/mg and 181.546 kg·ng·min/mL/mg and 323.613 kg·ng·min/mL/mg and 321.663 kg·ng·min/mL/mg
  AUMCINF_obs: 25618307 min*min*ng/mL and 7382666 min*min*ng/mL and 159455048 min*min*ng/mL and 32660009 min*min*ng/mL and 190278277 min*min*ng/mL and 207071348 min*min*ng/mL
  AUMCINF_pred: 24735428 min*min*ng/mL and 7028934 min*min*ng/mL and 156289942 min*min*ng/mL and 31610468 min*min*ng/mL and 186705642 min*min*ng/mL and 203285848 min*min*ng/mL
  AUMC_%Extrap_obs: 96.5565% and 92.707% and 98.9048% and 97.0301% and 99.0215% and 99.0739%
  AUMC_%Extrap_pred: 96.4336% and 92.3399% and 98.8827% and 96.9315% and 99.0028% and 99.0567%
  AUMClast: 882171 min*min*ng/mL and 538421 min*min*ng/mL and 1746296 min*min*ng/mL and 969971 min*min*ng/mL and 1861921 min*min*ng/mL and 1917596 min*min*ng/mL
  Cl_pred: 1636.19 mL/min/kg and 3521.18 mL/min/kg and 485.605 mL/min/kg and 1373.87 mL/min/kg and 431.268 mL/min/kg and 409.621 mL/min/kg
  Clast: 29.0426 ng/mL and 17.0426 ng/mL and 59.0426 ng/mL and 32.0426 ng/mL and 63.0426 ng/mL and 65.0426 ng/mL
  Clast_pred: 28.006 ng/mL and 16.1618 ng/mL and 57.8576 ng/mL and 30.9814 ng/mL and 61.8472 ng/mL and 63.8424 ng/mL
  Cmax: 69.2745 ng/mL and 99.6911 ng/mL and 99.2745 ng/mL and 96.6911 ng/mL and 103.275 ng/mL and 105.275 ng/mL
  Cmax_D: 1.385 kg·ng/mL/mg and 1.994 kg·ng/mL/mg and 1.985 kg·ng/mL/mg and 1.934 kg·ng/mL/mg and 2.065 kg·ng/mL/mg and 2.105 kg·ng/mL/mg
  HL_Lambda_z: 561.904 min and 363.887 min and 1052.72 min and 611.146 min and 1118.01 min and 1150.65 min
  Lambda_z: 0.001234 min⁻¹ and 0.001905 min⁻¹ and 0.0006584 min⁻¹ and 0.001134 min⁻¹ and 0.00062 min⁻¹ and 0.0006024 min⁻¹
  MRTINF_obs: 13.5982 h and 8.39195 h and 25.3673 h and 14.582 h and 26.9062 h and 27.8195 h
  MRTINF_pred: 13.4906 h and 8.25005 h and 25.298 h and 14.4762 h and 26.84 h and 27.757 h
  MRTlast: 1.87163 h and 1.57014 h and 1.92835 h and 1.78095 h and 1.91785 h and 1.9872 h
  Tlast: 240 min
  Tmax: 0.167 h and 0.083 h
  Vss_obs: 1299.224 L/kg and 1717.058 L/kg and 726.413 L/kg and 1171.898 L/kg and 684.839 L/kg and 672.746 L/kg
  Vss_pred: 1324.388 L/kg and 1742.993 L/kg and 737.1 L/kg and 1193.31 L/kg and 694.517 L/kg and 682.183 L/kg
  Vz_obs: 1290.887 L/kg and 1790.244 L/kg and 724.843 L/kg and 1180.977 L/kg and 684.235 L/kg and 669.067 L/kg
  Vz_pred: 1326.384 L/kg and 1848.542 L/kg and 737.512 L/kg and 1211.34 L/kg and 695.614 L/kg and 679.987 L/kg
